Tests used:
[1] = tested on: lipoprotein lipase (LPL) mRNA; assay: Liver lipoprotein lipase (LPL) mRNA by quantitative PCR in treated mice; format: in vivo; settings: 10 mg/kg daily oral; for LPL mRNA induction: day 7
Excerpt: To decipher the physiological roles of LXRα and LXRβ mice, seven different lines of mice encompassing four unique LXR genotypes (LXRα+/+, LXRβ+/+=wildtype; LXRα−/−, LXRβ+/+=LXRα−/−; LXRα+/+, LXRβ−/−=LXRβ−/−; LXRα−/−, LXRβ−/−=LXRαβ−/−) were studied. Genetic knockouts of LXRα( LXRα−/−) were generated in two independent mouse strain backgrounds (C57BL/6 and A129). Genetic knockouts of LXRβ (LXRβ−/−) and the double knockout of LXRα and LXRβ (LXRαβ−/−) were generated in a mixed genetic background (C57BL/6×A129). The three appropriate wildtype (LXRα+/+, LXRβ+/+) mouse lines were used as controls. Mice from each line were treated for seven days with 10 mg compound/kg body weight of the LXR agonist Compound 1: N-(2,2,2-trifluoroethyl)-N-[4-(2,2,2- trifluoro-1-hydroxy-1-trifluoromethylethyl)-phenyl]-benzene sulfonamide. […] Compound 1 was administered by daily oral gavage in a sesame oil/ethanol vehicle via a 1-cc syringe fitted with a 20G disposable feeding needle. Compound was solvated in ethanol (5% final volume) and brought up to final volume with sesame oil (Sigma, St. Louis, Mo.).

CYP7a mRNA = assay: Liver CYP7a mRNA by quantitative PCR in treated mice; format: in vivo; settings: for CYP7a mRNA induction: daily oral 7 days
Excerpt: The CYP7a gene encodes cholesterol 7α-hydroxylase, the rate-limiting enzyme in the catabolic conversion of cholesterol to bile acids. Increases in CYP7a activity stimulate the conversion of cholesterol to bile acids and may reduce plasma cholesterol levels by depleting hepatocytes of cholesterol. Intracellular cholesterol depletion should stimulate the uptake of LDL particles from the plasma by liver hepatocytes. To determine the contribution of LXRα and LXRβ to the induction of CYP7a by LXR agonists, Compound 1 was administered for seven days by daily oral gavage in a sesame oil/ethanol vehicle via a 1-cc syringe fitted with a 20G disposable feeding needle. Compound was solvated in ethanol (5% final volume) and brought up to final volume with sesame oil (Sigma, St. Louis, Mo.). Three hours after the final dose (day 7) animals were sacrificed, livers were harvested, and total liver RNA was isolated using RNeasy kits (QIAGEN Inc.) according to the supplier's total RNA isolation procedure. The RNA samples were further treated with deoxyribonuclease 1 to eliminate contaminating genomic DNA. CYP7a mRNA levels were than analyzed by real-time based quantitative PCR using Perkin Elmer ABI Prism 7700 and Sequence Detection System software (Perkin Elmer). […] As expected no induction is observed in LXRαβ−/− mice.

[2] = Dietary cholesterol absorption, fecal extraction method; format: in vivo, mice; settings: 50 mg/kg daily oral, 7 days
Experimental: Induction of cholesterol efflux pumps such as ABCA1 in the intestine limits the absorption of dietary cholesterol by stimulating the efflux of cholesterol out of intestinal enterocytes and into the intestinal lumen where it is excreted. To examine the effect of LXR pan-agonists on dietary cholesterol absorption, mixed wildtype and LXRαβ−/− mice were treated with vehicle or Compound 1 (50 mg/kg) for seven days prior to the initiation of the cholesterol absorption protocol. Compound 1 was administered by daily oral gavage in a 1% carboxy methyl-cellulose/ethanol vehicle via a 1-cc syringe fitted with a 20G disposable feeding needle. Compound was solvated in ethanol (5% final volume) and brought up to final volume with 1% carboxy methylcellulose. On day seven of the study, animals received a single oral bolus dose of 0.67 μCi [4-^14C]cholesterol (New England Nuclear, Boston, Mass.) and 1.3 μCi [5,6-^3H]sitostanol (ARC, St. Louis Mo.) by gavage in MCT oil (Mead Johnson, Evansville, Ind.). […] Extracted samples were counted on a scintillation counter and then analyzed based upon the following equation. [((^14C/^3H) dosing mixture)−(^14C/^3H) fecal samples)]/((^14C/^3H) dosing mixture). […] This agonist-dependent effect is lost in LXRαβ−/− mice indicating a requirement for LXR activity in mediating this activity.

[3] = Plasma glucose levels in db/db mice; format: in vivo; settings: 50 mg/kg daily oral gavage, 14 days
Excerpt: Cardiovascular disease is one of the major complications of type II diabetes. […] A mouse model of type II diabetes is the diabetic (db/db) mouse. [See Coleman, D. L. (1978), Obese and Diabetes: Two Mutant Genes Causing Diabetes-Obesity Syndrom In Mice. Diabetologia 14, 141-148; and Hong Chen, Olga […], Louis […], Elizabeth A. Woolf, Xun Weng, Stephen J. Ellis, […], Janice Culpepper, Karen J. More, Roger E. Breitbart, Geoffrey M. Duyk, Robert I. and Jay P. Morgenstern (1996), Evidence That The Diabetes Gene Encodes The Leptin Receptor: Identification Of A Mutation In The Leptin Receptor In db/db Mice, Cell 84, 491-495.] […] To examine the ability of LXR agonists to modulate blood glucose levels, db/db mice were treated for 14 days with 50 mg compound/kg body weight of the LXR agonist Compound 1. As a positive control animals were also treated with 30 mg compound/kg body weight of the retinoid X receptor (RXR) agonist. […] Both compounds were administered by daily oral gavage in a sesame oil/ethanol vehicle via a 1-cc syringe fitted with a 20G disposable feeding needle. […] Plasma glucose levels were determined using a colorimetric enzymatic assay adapted to a 96 well plate format (Sigma, St. Louis, Mo.). […] The absorbance of the samples and standards were read using a Multiskan plate reader.

SMILES: O=S(=O)(c1ccccc1)N(CC(F)(F)F)c1ccc(C(O)(C(F)(F)F)C(F)(F)F)cc1 [Compound 1, N-(2,2,2-trifluoroethyl)-N-[4-(2,2,2-trifluoro-1-hydroxy-1-trifluoromethylethyl)-phenyl]-benzene sulfonamide]
- LPL mRNA induction ([1]; LXRα−/− mice (C57BL/6 and A129)): completely blocks the pan-agonist induction of LPL
- LPL mRNA induction ([1]; LXRβ−/− mice): little or no effect
- fold induction at 10 mg/kg ([1]; Mus musculus, 168 h, wildtype mice, day 7, read-out: LPL mRNA fold induction (+Compound 1/vehicle)): 3 to 9
- CYP7a mRNA induction (CYP7a mRNA; LXRαβ−/− mice): no induction
- CYP7a mRNA induction (CYP7a mRNA; LXRα−/− mice): can induce transcription of the CYP7a gene
- CYP7a induction level relative to wildtype agonist-treated mice (CYP7a mRNA; LXRβ alone (LXRα−/− mice)): 20%-50%
- CYP7a mRNA induction (CYP7a mRNA; LXRβ−/− mice): can induce transcription of the CYP7a gene
- CYP7a mRNA induction (CYP7a mRNA; wildtype mice): can induce transcription of the CYP7a gene
- effect on cholesterol absorption ([2]; LXRαβ−/− mice): lost
- effect on cholesterol absorption ([2]; mixed wildtype mice): significant decrease in cholesterol absorption
- effect on plasma glucose (hyperglycemia) [3]: significantly reduces hyperglycemia in db/db mice

— patent US6924311B2, “Methods for affecting various diseases utilizing LXR compounds” (X-Ceptor Therapeutics, Inc., priority 2001, dated 2005)
